Data as given in the supplement of paper PMC10307832.

Experiments:
Crenolanib + Vorinostat = compound: CC1(COc2ccc3c(c2)ncn3-c2ccc3cccc(N4CCC(N)CC4)c3n2)COC1 [Crenolanib] + O=C(CCCCCCC(=O)Nc1ccccc1)NO [Vorinostat] (partner 1 µM); experiment: relative viability (nuclei count vs DMSO), 5 days (fraction); higher = more cells survive
In short: (§1)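 Lung cancer cell lines, seeded in 1536-well plates, were treated the following day by pin tool with a single drug or with five library-drug doses (not always all listed) in √10 steps on top of a fixed anchor-drug dose. Cells were fixed and nuclei stained in one step after 5 days, and nuclei were counted. Relative viability is the nuclei count for treated wells divided by that for vehicle wells, reported as medians of duplicate plates.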

Crenolanib + AZD7762 = compound: CC1(COc2ccc3c(c2)ncn3-c2ccc3cccc(N4CCC(N)CC4)c3n2)COC1 [Crenolanib] + NC(=O)Nc1cc(-c2cccc(F)c2)sc1C(=O)N[C@H]1CCCNC1 [AZD7762] (partner 0.2 µM); experiment: as above
In short: as §1

Cell Line | relative viability (Crenolanib + Vorinostat; first compound 0.01 µM) | relative viability (Crenolanib + Vorinostat; first compound 0.03162 µM) | relative viability (Crenolanib + Vorinostat; first compound 0.1 µM) | relative viability (Crenolanib + Vorinostat; first compound 0.3162 µM) | relative viability (Crenolanib + Vorinostat; first compound 1 µM) | relative viability (Crenolanib + AZD7762; first compound 0.01 µM) | relative viability (Crenolanib + AZD7762; first compound 0.03162 µM) | relative viability (Crenolanib + AZD7762; first compound 0.1 µM) | relative viability (Crenolanib + AZD7762; first compound 0.3162 µM) | relative viability (Crenolanib + AZD7762; first compound 1 µM)
201T | 0.985 | 1 | 0.929 | 0.955 | 0.983 | 0.686 | 0.633 | 0.605 | 0.739 | 0.694
A-427 | 0.848 | – | 0.848 | 0.946 | 0.83 | 0.778 | – | 0.726 | 0.802 | 0.853
ABC-1 | 0.991 | 0.679 | 1.13 | 1.17 | 0.934 | – | 0.776 | 0.961 | 1.01 | 0.902
BEN | 0.569 | 0.516 | 0.581 | 0.595 | 0.555 | 0.684 | 0.612 | 0.704 | 0.735 | 0.71
CAL-12T | 0.781 | 0.67 | 0.631 | 0.966 | 0.66 | 0.778 | 0.553 | 0.641 | 0.634 | 0.799
COR-L23 | 0.553 | 0.559 | 0.394 | 0.5 | 0.476 | – | – | – | – | –
COR-L 105 | 0.842 | 0.957 | 0.904 | 1.08 | 0.922 | – | – | – | – | –
ChaGo-K-1 | 0.721 | 0.81 | 0.724 | 0.745 | 0.793 | 0.876 | 0.863 | 0.866 | 0.933 | 0.891
EKVX | 0.928 | 0.752 | 0.722 | 0.888 | 0.654 | 0.733 | 0.779 | 0.731 | 0.841 | 0.761
EMC-BAC-2 | 0.47 | – | 0.485 | 0.447 | 0.303 | 1.1 | – | 1.1 | 1.25 | 1.07
EPLC-272H | 0.435 | 0.622 | 0.469 | 0.308 | 0.584 | 0.207 | 0.238 | 0.376 | 0.289 | 0.251
H3255 | 0.811 | 0.744 | 0.838 | 0.853 | 0.726 | 1.05 | 0.761 | 0.907 | 0.835 | 0.797
HARA | 0.568 | 0.499 | 0.532 | 0.626 | 0.502 | 0.399 | 0.391 | 0.588 | 0.248 | 0.509
HCC-15 | 0.954 | 0.888 | 0.844 | 0.877 | 0.775 | 1.07 | 1.15 | 0.961 | 0.607 | 1.17
HCC-44 | 1.06 | 1.05 | 1.19 | 1.06 | 1.05 | 1.05 | 0.955 | 1.01 | 1.07 | 0.973
HCC-78 | 0.441 | 0.424 | 0.493 | 0.433 | 0.386 | 0.629 | 0.619 | 0.733 | 0.477 | 0.567
HCC-366 | 0.377 | 0.357 | 0.335 | 0.426 | 0.216 | 0.689 | 0.327 | 0.333 | 0.363 | 0.474
HCC-827 | 0.985 | 0.837 | 0.809 | 0.7 | 0.753 | 0.276 | 0.212 | 0.2 | 0.189 | 0.218

Cell Line | relative viability (Crenolanib + Vorinostat; first compound 0.01 µM) | relative viability (Crenolanib + Vorinostat; first compound 0.03162 µM) | relative viability (Crenolanib + Vorinostat; first compound 0.1 µM) | relative viability (Crenolanib + Vorinostat; first compound 0.3162 µM) | relative viability (Crenolanib + Vorinostat; first compound 1 µM) | relative viability (Crenolanib + AZD7762; first compound 0.01 µM) | relative viability (Crenolanib + AZD7762; first compound 0.03162 µM) | relative viability (Crenolanib + AZD7762; first compound 0.1 µM) | relative viability (Crenolanib + AZD7762; first compound 0.3162 µM) | relative viability (Crenolanib + AZD7762; first compound 1 µM)
HOP-62 | 0.653 | 0.542 | 0.635 | 0.829 | 0.552 | 0.618 | 0.709 | 0.668 | 1.1 | 0.75
IA-LM | 1.06 | 0.971 | 0.956 | 0.905 | 0.678 | – | – | – | – | –
LC-2-ad | 0.726 | 0.674 | 0.67 | 0.736 | 0.679 | 0.892 | 0.898 | 0.777 | 0.908 | 0.821
LCLC-97TM1 | 0.822 | 0.83 | 0.792 | 0.832 | 0.536 | 0.316 | 0.219 | 0.41 | 0.561 | 0.277
LCLC-103H | 0.752 | 0.791 | 0.754 | 0.811 | 0.746 | 0.758 | 0.761 | 0.714 | 0.759 | 0.702
LK-2 | 0.326 | 0.259 | 0.273 | 0.354 | 0.311 | 0.483 | 0.46 | 0.423 | 0.499 | 0.453
LOU-NH91 | 0.996 | 0.913 | 0.878 | 0.886 | 0.867 | 0.765 | 0.762 | 0.782 | 0.817 | 0.697
LU99A | 0.58 | 0.576 | 0.43 | 0.501 | 0.455 | 0.42 | 0.419 | 0.414 | 0.467 | 0.401
LXF-289 | 0.734 | 0.798 | 0.712 | 0.723 | 0.637 | 1.03 | 1.13 | 1.09 | 1.11 | 1.05
NCI-H23 | 0.722 | 0.565 | 0.621 | 0.517 | 0.459 | 0.273 | 0.309 | 0.244 | 0.268 | 0.276
NCI-H322M | 0.872 | 0.789 | 0.872 | 0.808 | 0.784 | 0.589 | 0.52 | 0.555 | 0.544 | 0.695
NCI-H358 | 0.784 | 0.71 | 0.633 | 0.729 | 0.611 | 0.577 | 0.67 | 0.465 | 0.537 | 0.584
NCI-H441 | 0.98 | 0.705 | 0.657 | 1 | 0.832 | 1.24 | 1.56 | 1.15 | 1.33 | 1.17
NCI-H460 | 0.743 | 0.701 | 0.688 | 1.16 | 0.768 | 0.668 | 0.482 | 0.695 | 0.872 | 0.86
NCI-H520 | 0.703 | 0.641 | 0.733 | 0.765 | 0.652 | – | – | – | – | –
NCI-H522 | 1 | 0.876 | 0.855 | 0.92 | 0.8 | 1.03 | 0.853 | 0.773 | 0.88 | 0.836
NCI-H596 | 0.586 | 0.546 | 0.616 | 0.592 | 0.594 | 1.27 | 1.16 | 1.03 | 1.22 | 1.11
